US20090203577A1 (EXELIXIS, INC., priority 2005, published 2009)
In brackets after ≈: the same amount, converted by molar mass.

What was measured:
[1] = physchem; conditions: pH 7.4, aqueous buffer, kinetic from dmso stock
Protocol: The kinetic solubility of test compounds in buffer was evaluated using a 96 well filtration plate format. A 500 μM assay solution in PBS, pH7.4 (or other assay buffer, as needed) was generated form a DMSO stock solution (up to 10 mM). Samples were transferred to a 96 Millipore MultiScreen HTS 96-well Filter plate (Cat# MSSLBPC10) mixed by shaking for 1.5 hours and processed by filtration prior to quantitation by HPLC-UV. Amiodarone and testosterone were used as reference controls.

[2] = target: T1, human farnesoid X receptor (Homo sapiens, UniProt Q96RI1); assay: FXR in vitro assays (farnesoid X receptor/ECREx7 co-transfection assay, TR-FRET assay), Table I; type: cell-based; conditions: for EC50: agonist activity, one or more of the in vitro assays, read-out: EC50; for Emax: read-out: % Efficacy
T1 construct: CMX-farnesoid X receptor (full length human farnesoid X receptor); expressed in transfected cells; host or cells: CV-1 African Green Monkey Kidney cells
T1 sequence (Q96RI1 1-472 isoform Q96RI1-2): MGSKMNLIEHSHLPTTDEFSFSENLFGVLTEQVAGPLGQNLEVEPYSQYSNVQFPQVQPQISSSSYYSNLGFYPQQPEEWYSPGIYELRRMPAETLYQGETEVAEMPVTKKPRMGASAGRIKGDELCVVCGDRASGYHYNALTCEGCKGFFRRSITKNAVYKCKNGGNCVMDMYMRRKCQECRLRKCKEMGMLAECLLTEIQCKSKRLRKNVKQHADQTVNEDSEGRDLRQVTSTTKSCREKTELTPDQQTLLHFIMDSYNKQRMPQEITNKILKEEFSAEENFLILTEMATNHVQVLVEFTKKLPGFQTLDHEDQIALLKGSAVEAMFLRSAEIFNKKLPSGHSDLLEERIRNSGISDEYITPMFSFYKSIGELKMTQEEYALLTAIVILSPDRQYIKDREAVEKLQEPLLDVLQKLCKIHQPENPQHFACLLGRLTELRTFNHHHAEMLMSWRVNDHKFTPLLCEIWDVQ
T1 sequence (P19793 1-462 partner): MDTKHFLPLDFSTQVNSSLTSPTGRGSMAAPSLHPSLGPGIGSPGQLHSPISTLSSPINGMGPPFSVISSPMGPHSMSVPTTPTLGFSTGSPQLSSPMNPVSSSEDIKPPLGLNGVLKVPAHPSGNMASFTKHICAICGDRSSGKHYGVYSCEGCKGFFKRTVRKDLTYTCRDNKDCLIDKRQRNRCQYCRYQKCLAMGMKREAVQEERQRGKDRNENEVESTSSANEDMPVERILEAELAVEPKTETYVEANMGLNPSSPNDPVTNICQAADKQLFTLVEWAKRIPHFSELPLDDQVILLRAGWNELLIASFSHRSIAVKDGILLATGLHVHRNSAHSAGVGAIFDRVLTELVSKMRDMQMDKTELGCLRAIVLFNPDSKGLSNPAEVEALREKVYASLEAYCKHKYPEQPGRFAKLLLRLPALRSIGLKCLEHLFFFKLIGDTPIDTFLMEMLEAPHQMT
Procedure, shortened: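 CV-1 monkey kidney cells transfected for an FXR/ECREx7 luciferase co-transfection reporter; luciferase read 18-20 h later in lysates. 8-point dose-response at ½-log spacing, 4 wells per point; EC50/IC50 from four-parameter Hill fit, averaged over at least 3 independent experiments.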

SMILES	solubility kinetic at 1.5 h [1]	EC50 [2]	Emax [2]
CC(C)OC(=O)C1=CN(C(=O)N2CCCN(C)CC2)CC(C)(C)c2c1[nH]c1ccccc21 [Example 43, 1-methyl 1,1-dimethyl-3-[(4-methyl-1,4-diazepan-1-yl)carbonyl]-1,2,3,6-tetrahydroazepino[4,5-b]indole-5-carboxylate]	> 10 µM	100 to 1000 nM	> 100%
CC(C)OC(=O)C1=CN(C(=O)NC2CCCCC2)CC(C)(C)c2c1[nH]c1ccccc21 [Example 45, 1-methylethyl 3-[(cyclohexylamino)carbonyl]-1,1-dimethyl-1,2,3,6-tetrahydroazepino[4,5-b]indole-5-carboxylate]	1 to 10 µM (≈ 0.424 to 4.24 µg/mL)	10 to 100 nM	> 100%
CC(C)OC(=O)C1=CN(C(=O)N2CCOCC2)CC(C)(C)c2c1[nH]c1ccccc21 [Example 47, 1-methylethyl 1,1-dimethyl-3-(morpholin-4-ylcarbonyl)-1,2,3,6-tetrahydrazepino[4,5-b]indole-5-carboxylate]	> 10 µM	10 to 100 nM	> 100%
CC(C)OC(=O)C1=CN(C(=O)N2CCCC(CN(C)C)C2)CC(C)(C)c2c1[nH]c1ccccc21 (stereo not drawn) [Example 48, 1-methylethyl 3-({3-[(dimethylamino)methyl]piperidin-1-yl}carbonyl)-1,1-dimethyl-1,2,3,6-tetrahydroazepino[4,5-b]indole-5-carboxylate]	> 10 µM	1000 to 10000 nM	> 100%
CC(C)OC(=O)C1=CN(C(=O)N2CCC[C@@H](CN(C)C)C2)CC(C)(C)c2c1[nH]c1ccccc21 [Example 50, 1-methylethyl 3-({(3S)-3-[(dimethylamino)methyl]piperidin-1-yl}carbonyl)-1,1-dimethyl-1,2,3,6-tetrahydroazepino[4,5-b]indole-5-carboxylate]	> 10 µM	1000 to 10000 nM	60 to 80%
CC(C)OC(=O)C1=CN(C(=O)N2CCC[C@H](CN(C)C)C2)CC(C)(C)c2c1[nH]c1ccccc21 [Example 51, 1-methylethyl 3-({(3R)-3-[(dimethylamino)methyl]piperidin-1-yl}carbonyl)-1,1-dimethyl-1,2,3,6-tetrahydroazepino[4,5-b]indole-5-carboxylate]	> 10 µM	1000 to 10000 nM	> 100%
CC(C)OC(=O)C1=CN(C(=O)N2CCCC(CN3CCOCC3)C2)CC(C)(C)c2c1[nH]c1ccccc21 (stereo not drawn) [Example 53, 1-methylethyl 1,1-dimethyl-3{[3-(morpholin-4-ylmethyl)piperidin-1-yl]carbonyl}-1,2,3,6-tetrahydroazepino [4,5-b]indole-5-carboxylate]	> 10 µM	100 to 1000 nM	> 100%
CC(C)OC(=O)C1=CN(C(=O)N[C@H]2CCCNC2)CC(C)(C)c2c1[nH]c1ccccc21 [Example 54, 1-mcthylethyl 1,1-dimethyl-3-{[(3S)-piperidin-3-ylamino]carbonyl}-1,2,3,6-tetrahydroazepino[4,5-b]indole-5-carboxylate]	> 10 µM	1000 to 10000 nM	40 to 60%
CC(C)OC(=O)C1=CN(C(=O)NC2CCCNC2)CC(C)(C)c2c1[nH]c1ccccc21 (stereo not drawn) [Example 56, 1-methylethyl 1,1-dimethyl-3-[(piperidin-3-ylamino)carbonyl]-1,2,3,6-tetrahydro azepino[4,5-b]indole-5-carboxylate]	> 10 µM	1000 to 10000 nM	< 40%
CC(C)OC(=O)C1=CN(C(=O)N2CCC[C@H](CN3CCOCC3)C2)CC(C)(C)c2c1[nH]c1ccccc21 [Example 57, 1-methylethyl 1,1-dimethyl-3-{[(3R)-3-(morpholin-4-ylmethyl)piperidin-1-yl]carbonyl}-1,2,3,6-tetrahydroazepino [4,5-b]indole-5-carboxylate]	> 10 µM	1000 to 10000 nM	> 100%
CC(C)OC(=O)C1=CN(C(=O)N2CCC[C@H](CN3CCCCC3)C2)CC(C)(C)c2c1[nH]c1ccccc21 [Example 58]	> 10 µM	1000 to 10000 nM	80 to 100%
CC(C)OC(=O)C1=CN(C(=O)N2CCC[C@@H](N3CCCCC3)C2)CC(C)(C)c2c1[nH]c1ccccc21 [Example 60, 1-methylethyl 3-[(3′R)-1,3′-bipiperidin-1′-ylcarbonyl]-1,1-dimethyl-1,2,3,6-tetrahydroazepino[4,5-b]indole-5-carboxylate]	> 10 µM	1000 to 10000 nM	60 to 80%
CC(C)OC(=O)C1=CN(C(=O)c2ccccc2C(F)(F)F)CC(C)(C)c2c1[nH]c1ccccc21 [Example 64, 1-methylethyl 1,1-dimethyl-3-{[2-(trifluoromethyl)phenyl]-carbonyl}-1,2,3,6-tetrahydroazepino[4,5-b]indole-5-carboxylate]	1 to 10 µM (≈ 0.47 to 4.7 µg/mL)	10 to 100 nM	> 100%
CC(C)OC(=O)C1=CN(C(=O)c2ccccc2Br)CC(C)(C)c2c1[nH]c1ccccc21 [Example 67, 1-methylethyl 3-[(2-bromophenyl)carbonyl]-1,1-dimethyl-1,2,3,6-tetrahydroazepino[4,5-b]indole-5-carboxylate]	1 to 10 µM (≈ 0.481 to 4.81 µg/mL)	10 to 100 nM	> 100%
CC(C)OC(=O)C1=CN(C(=O)c2ccccc2OC(F)(F)F)CC(C)(C)c2c1[nH]c1ccccc21 [Example 70, 1-methylethyl 1,1-dimethyl-3-({2-[(trifluoromethyl)oxy]phenyl}carbonyl)-1,2,3,6-tetrahydroazepino[4,5-b]indole-5-carboxylate]	1 to 10 µM (≈ 0.486 to 4.86 µg/mL)	100 to 1000 nM	> 100%
CC(C)OC(=O)C1=CN(C(=O)c2cccc(F)c2)CC(C)(C)c2c1[nH]c1ccccc21 [Example 72, 1-methylethyl 3-[(3-fluorophenyl)carbonyl]-1,1-dimethyl-1,2,3,6-tetrahydroazepino[4,5-b]indole-5-carboxylate]	1 to 10 µM (≈ 0.42 to 4.2 µg/mL)	1 to 10 nM	> 100%
CC(C)OC(=O)C1=CN(C(=O)c2ccc3c(c2)OCO3)CC(C)(C)c2c1[nH]c1ccccc21 [Example 80, 1-methylethyl 3-(1,3-benzodioxol-5-ylcarbonyl)-1,1-dimethyl-1,2,3,6-tetrahydroazepino[4,5-b]indole-5-carboxylate]	1 to 10 µM (≈ 0.447 to 4.47 µg/mL)	10 to 100 nM	> 100%
CC(C)OC(=O)C1=CN(C(=O)c2cccc(Cl)c2)CC(C)(C)c2c1[nH]c1ccccc21 [Example 81, 1-methylethyl 3-[(3-chlorophenyl)carbonyl]-1,1-dimethyl-1,2,3,6-tetrahydroazepino[4,5-b]indole-5-carboxylate]	1 to 10 µM (≈ 0.437 to 4.37 µg/mL)	10 to 100 nM	> 100%
CC(C)OC(=O)C1=CN(C(=O)c2ccc(Cl)cc2)CC(C)(C)c2c1[nH]c1ccccc21 [Example 82, 1-methylethyl 3[(4-chlorophenyl)carbonyl]-1,1-dimethyl-1,2,3,6-tetrahydroazepino[4,5-b]indole-5-carboxylate]	1 to 10 µM (≈ 0.437 to 4.37 µg/mL)	10 to 100 nM	> 100%
CC(C)OC(=O)C1=CN(C(=O)c2ccc(F)c(C(F)(F)F)c2)CC(C)(C)c2c1[nH]c1ccccc21 [Example 83, 1-methylethyl 3-{[4-fluoro-3-(trifluoromethyl)phenyl]car-bonyl}-1,1-dimethyl-1,2,3,6-tetrahydroazepino[4,5-b]indole-5-carboxylate]	1 to 10 µM (≈ 0.488 to 4.88 µg/mL)	10 to 100 nM	> 100%
Cc1cccc(C(=O)N2C=C(C(=O)OC(C)C)c3[nH]c4ccccc4c3C(C)(C)C2)c1 [Example 86, 1-methylethyl 1,1-dimethyl-3-[(3-methylphenyl)carbonyl]-1,2,3,6-tetrahydroazepino[4,5-b]indole-5-carboxylate]	1 to 10 µM (≈ 0.417 to 4.17 µg/mL)	1 to 10 nM	> 100%
